Test results reported in US12492225B2, “Melanocyte-regulating peptides” (IDP DISCOVERY PHARMA, S.L., priority 2019, dated 2025).

Tested on: B16-F10 melanoma cells
Experiment: Measurement of melanin content in B16-F10 melanoma cells
Format: cell-based, mouse
Details: KA at 1 uM; FIG. 1
Protocol: B16-F10 melanoma cells were seeded into 25 cm^2 cell culture flask and incubated for 24 h. Then, 0.1 μM α-MSH was added and cells were treated with the aforementioned peptides at doses lower than their respective IC50 for a total of 48 h incubation. After washing twice with phosphate buffered saline, cells were dissolved in 1 mL of 1N NaOH. For measurement of melanin content, 100 μL aliquots of solution were then placed in 96-well plates and the absorbance was measured at 450 nm using microplate reader. Anti-melanin activity was expressed by the percentage of melanin to that of untreated melanoma cells. As positive control Kojic Acid (KA) was used at different concentrations (0.1, 1 and 10 μM).

O=c1cc(CO)occ1O [KA, kojic acid]
reduction of melanin compared with the peptides of the invention (F22) at the same concentration: the reduction was substantially lower
